Values of other authors, collected in US9211305B2, “Pharmaceutical compositions with glycosaminoglycans and use thereof in the treatment of chronic ulcers” (LABORATORIOS FARMACEUTICOS ROVI S.A., priority 2008, dated 2015).

Legend:
[1] = in vivo; cited from earlier work
[2] = Ph. Eur. 6th Edition; cited from earlier work
factor Xa = conditions: commercial products; cited from earlier work

Nadroparin
Plasma Half-Life [1]: 3.7 h
Plasma Half-Life Range [1]: 3.7 h

Heparin Sodium
Anti-coagulating activity [2]: ≥ 150 IU/mg

Dalteparin
anti-factor Xa activity (factor Xa): 110-210 IU/mg
Plasma Half-Life [1]: 2.5 h
Plasma Half-Life Range [1]: 2.3 to 2.8 h

Tinzaparin
anti-factor Xa activity (factor Xa): 70-120 IU/mg
Plasma Half-Life [1]: 3.0 h
Plasma Half-Life Range [1]: 3.0 h

Enoxaparin
anti-factor Xa activity (factor Xa): 90-125 IU/mg
Plasma Half-Life [1]: 4.2 h
Plasma Half-Life Range [1]: 4.0 to 4.4 h
